Test [1] has as its system Lactobacilli. As to the kind of experiment: Continuous culture chemostat with faecal inocula and antimicrobials. The conditions noted are these: 1 gl^−1 in medium. It counts as cell-based. As for the experimental part:
(§1) (i) Continuous culture system: Three chemostats are set up in a parallel; each is maintained under nitrogen gas, at 37° C., pH 6.5 and a dilution rate of 0.066 h^−1. These conditions are set to resemble conditions typically found in the distal region of the human colon. The chemostats are fed with a control growth medium which comprised (gl^−1 in distilled water): yeast extract 2, peptone water 2, NaCl 0.1, K2HPO4 0.04, KH2PO4 0.04, MgSO4.7H2O 0.01, CaCl2.H2O 0.01, NaHCO3 2, Tween 80 2, hemin 0.05, Vitamin K1 0.01, cysteine.HCl 0.5, bile salts 0.5, glucose 0.4, starch 3, pectin 2 and arabinogalactan 1. The medium is autoclaved at 121° C. for 30 min and, whilst still hot, placed under nitrogen gas. After the medium has cooled, 1 gl^−1 of filter sterilised tetracycline or 1 gl^−1 of filter sterilised nystatin is aseptically added to the medium reservoir. Control chemostats with no antimicrobials added are also run. […]
(§2) (iii) Microbial culture techniques: A sample is taken from each fecal slurry used as inocula and 1 ml samples are also removed from each chemostat when the fermentation system has reached steady state (after 164 h). […] After 24-48 h of Incubation aerobic colonies are counted and after 48-72 h of incubation anaerobic plates are enumerated. […]

In test [2] the test system is yeasts. The description is as above. Format: cell-based. The conditions noted are these: 1 gl^−1 in medium, compared to control chemostats. The protocol: as §1, §2

Structures are written as SMILES.

As to `C[C@@H]1[C@H](O)[C@@H](C)/C=C/C=C/CC/C=C/C=C/C=C/C=C/C(O[C@H]2O[C@H](C)[C@@H](O)[C@H](N)[C@@H]2O)CC2O[C@](O)(CC(O)C(O)CCC(O)CC(O)CC(O)CC(=O)O[C@H]1C)CC(O)C2C(=O)O` (some centres unmarked) [nystatin], in test [1], the effect on lactobacilli result is given as “reduction in lactobacilli”. Moreover, the effect on yeasts result in test [2] is reported as “yeasts are inhibited”.
